Results taken from US7442798B2, “Autoinducer molecules and uses therefor” (priority 2000, dated 2008).
pEC50: −log10 of the molar value. “Also recorded” adds a separate entry of the source.

Key:
lasB′-lacZ fusion [1] = experiment: PQS bioassay: activation of lasB′-lacZ fusion in P. aeruginosa strain PAO-R1 (lasR−) (pTS400), β-galactosidase assay; type: cell-based, Pseudomonas aeruginosa
Description: To monitor PQS bioactivity, 1-ml cultures of P. aeruginosa strain PAO-R1 (pTS400) were grown for 18 h at 37° C. with shaking (260 rpm; initial optical density was 0.02 at 660 nm) in the presence of culture extract or synthetic PQS. This was followed by measuring activation of the lasB′-lacZ fusion with the use of β-galactosidase (β-gal) assays as described by Miller (19). For culture extracts, bacterial culture fluid was extracted with ethyl acetate and was prepared as described (3). Extracts that were resuspended in ethyl acetate were added to bioassay tubes, and ethyl acetate was removed by drying under a stream of nitrogen. Unless otherwise specified, the amount of material assayed was extracted from 10 ml of culture fluid.

lasB′-lacZ = lasB′-lacZ bioassay in lasR, rhlR double mutant strain PAO-JP3 (pTS400); type: cell-based, Pseudomonas aeruginosa
Description: This molecule was determined to have a 4-quinolone base structure and therefore has been designated as the Pseudomonas quinolone signal (PQS). Furthermore, exogenously added PQS induced a lasB′-lacZ fusion in the P. aeruginosa lasR mutant, strain PAO-R1, containing the plasmid pTS400. […] Despite the ability of PQS to activate lasB′-lacZ in the absence of lasR, the production of PQS required an active LasR protein. […] It was also determined that at least RhlR was required for PQS to act as a signal because lasB′-lacZ was not induced by PQS in the lasR, rhlR double mutant, strain PAO-JP3, containing the plasmid pTS400.

RhlR = experiment: E. coli bioassay: strain DH5a (pECP62.5) with lasB′-lacZ reporter and inducible tacp-rhlR; type: cell-based, Escherichia coli; conditions: E. coli strain DH5a (pECP62.5), tacp-rhlR induced
Description: Using this information, an experiment was conducted to define the requirements for signal activity by developing an E. coli bioassay for the signal. E. coli strain DH5a was transformed with plasmid pECP62.5, which contained the lasB′-lacZ reporter and the inducible tacp-rhlR gene. If the signal worked directly through RhlR, then the induction of tacp-rhlR in the presence of exogenously added signal should result in the activation of lasB′-lacZ in E. coli strain DH5a (pECP62.5).

Staphylococcus aureus = experiment: anti-Staphylococcus aureus activity; type: cell-based
E. coli = experiment: anti-E. coli activity; type: cell-based
lasB′-lacZ fusion [2] = conditions: strain PAO-R1 (lasR) (pTS400); cited from earlier work

CCCCCCCc1cc(O)c2ccccc2[n+]1[O-] [2-heptyl-4-hydroxy-quinoline-N-oxide, reference compound]
induction of lasB′-lacZ / activity in the PQS bioassay (in words) (lasB′-lacZ fusion [1]; strain PAO-R1 (lasR−) (pTS400)): not active

CCCCCCCc1[nH]c2ccccc2c(=O)c1O [PQS, 2-heptyl-3-hydroxy-4-quinolone]
activation of the lasB promoter (β-gal activity) (lasB′-lacZ fusion [1]; 5 mM synthetic PQS, strain PAO-R1 (lasR−) (pTS400), FIG. 6): 148 Miller units | pEC50 (lasB′-lacZ fusion [1]; Pseudomonas aeruginosa, read-out: amount required to activate the bioassay to half of its maximum activity): ~4.52 | induction of lasB′-lacZ / activity in the PQS bioassay (in words) (lasB′-lacZ fusion [1]; strain PAO-R1 (lasR−) (pTS400)): active; also recorded: dose-dependent induction | induction of lasB′-lacZ (in words) (lasB′-lacZ): not induced | PQS response, lasB′-lacZ, in recombinant E. coli expressing RhlR (in words) (RhlR): not replicated | anti-Staphylococcus aureus activity (Staphylococcus aureus): does not have detectable | anti-E. coli activity (E. coli): does not have detectable

CCCCCCCC1C(=O)c2ccccc2N=C1O (stereo not shown) [2-hydroxy-3-heptyl-4-quinolone, reference compound]
induction of lasB′-lacZ / activity in the PQS bioassay (in words) (lasB′-lacZ fusion [1]; strain PAO-R1 (lasR−) (pTS400)): not active

CCCCCCCCCC(=O)CC(=O)N[C@H]1CCOC1=O [3-oxo-C12-HSL, N-3-(oxododecanoyl)-L-homoserine lactone, reference compound]
induction of lasB′-lacZ / activity in the PQS bioassay (in words) (lasB′-lacZ fusion [1]; strain PAO-R1 (lasR−) (pTS400)): could not be mimicked | response of lasB′-lacZ fusion to exogenously added autoinducer (in words) (lasB′-lacZ fusion [2]): unresponsive

CCCC(=O)N[C@H]1CCOC1=O [C4-HSL, N-butanoyl-L-homoserine lactone, reference compound]
induction of lasB′-lacZ / activity in the PQS bioassay (in words) (lasB′-lacZ fusion [1]; strain PAO-R1 (lasR−) (pTS400)): could not be mimicked | response of lasB′-lacZ fusion to exogenously added autoinducer (in words) (lasB′-lacZ fusion [2]): mildly activated
